The source of these data is US9371337B2, “β-lactamase inhibitors” (The Regents of the University of California, priority 2011, dated 2016).

The subject of test [1] is P. aeruginosa, AmpC-overproducing. In words: MIC of third-generation cephalosporins alone and with compounds (Table 6). To be noted: antibiotic alone. It counts as cell-based, Pseudomonas aeruginosa. The method, then:
(§1) The anti-resistance activity of inhibitors was investigated by the determination of the minimum inhibitory concentrations (MICs) of the β-lactam/inhibitor combination necessary to inhibit the growth of clinically-isolated bacteria resistant to third-generation cephalosporins via expression of class A or class C β-lactamases (Table 6).
(§2) Susceptibility testing was performed and interpreted following the guidelines of CLSI. (Clinical and Laboratory Standards Institute, Performance standards for antimicrobial susceptibility testing, 20th Informational Supplement, M100-S20 2010) The compounds were dissolved in 50% DMSO, and dilutions were performed using Muller-Hinton medium. An adequate final concentration was obtained to determine the minimum inhibitory concentrations (MICs). The concentration of DMSO was maintained below 5%. The inhibitors were tested for synergy with the third-generation β-lactams ceftazidime and cefotaxime against several clinical bacteria. The ratio of β-lactams to inhibitors was 1:4. Each value reported reflects the average of three independent experiments. […] The Friedman's test and the Wilcoxon signed rank test were used to compare MIC values. Statistical significance was established at p<0.05.
Table 6. MICs (μg/ml) of third-generation cephalosporins alone and in association with the compounds (ratio 1/4) for clinical bacteria. […]

In test [2] the test system is K. pneumoniae, AmpC-overproducing. The test is described as above. Type of test: cell-based, Klebsiella pneumoniae. The note with it: antibiotic alone. The method, then:
as §1, §2
(§3) Table 6. MICs (μg/ml) of third-generation cephalosporins alone and in association with the compounds (ratio 1/4) for clinical bacteria. CTX, cefotaxime and CAZ, ceftazidime. ^1, AmpC-overproducing bacteria; ^2, CTX-M-14-producing E. coli; ^3, KPC-2-producing K. pneumoniae; ^4, OXA-48-producing K. pneumoniae; ^5, NDM-1-producing C. freundii.

The test system of test [3] is OXA-48-producing K. pneumoniae. The test is described as above. Type of test: cell-based, Klebsiella pneumoniae. To be noted: antibiotic alone. The protocol: as §1, §2, §3
In test [4] the test system is E. cloacae, AmpC-overproducing. Described as above. It counts as cell-based, Enterobacter cloacae. To be noted: antibiotic alone. The method, then: as §1, §2, §3
In test [5] the test system is E. cloacae 135, AmpC-overproducing. Described as above. Type of test: cell-based, Enterobacter cloacae. The note with it: antibiotic alone. The protocol:
as §1, §2, §3

The test system of test [6] is P. aeruginosa overproducing chromosomally-mediated class C β-lactamase. Kind of test: MIC of third-generation cephalosporins alone and with compounds 4 or 9 (Table 3). To be noted: antibiotic alone. It counts as cell-based, Pseudomonas aeruginosa.
The subject of test [7] is AmpC-overproducing Escherichia coli strain 4. In words: Mouse model of bacteremia and sepsis, survival. Type of test: in vivo, OF1 mice. The note with it: 120 h post infection; ip at 0.5, 3.5, 6.5 h; imipenem 50 mg/kg, cefotaxime 50 mg/kg, cefotaxime:CR161 50:200 mg/kg. The protocol:
FIG. 17. Percentage of survival of mice infected with AmpC-overproducing Escherichia coli over the course of 5 days (120 h). Mice were inoculated by intraperitoneal injection with AmpC-overproducing Escherichia coli strain 4 (1±0.5 10^9 colony-forming units) and treated at 0.5, 3.5, 6.5 h after infection by intraperitoneal injection of 50 mg/kg imipenem (□, n=20), 50:200 mg/kg cefotaxime:CR161 combination (▪, n=17), 50 mg/kg cefotaxime (●, n=20) or sterile isotonic saline (◯, n=20).
Efficacy in a mouse model of infection. We had not observed such substantial reversal of bacterial resistance to β-lactams, across such a broad spectrum of clinical isolates, for previous series of boronic acid inhibitors of β-lactamase; indeed, this lack of efficacy had motivated this study. These new cell-culture MIC values inspired us to investigate the efficacy of one of these compounds in a mouse model of bacteremia and sepsis. […] Mice were treated with cefotaxime alone, cefotaxime combined with compound CR161, with sterile isotonic saline, and with imipenem as a reference treatment of systemic infections by cephalosporin-resistant enterobacteriaceae (FIG. 17); 20 mice were used in each clade. […]
OF1 mice 4-5 weeks of age and weighing 20-25 g were used in this study. […] The survival of mice in each group was monitored every 6 h for 5 days after infection. […]

Take `CO/N=C(\C(=O)N[C@@H]1C(=O)N2C(C(=O)O)=C(COC(C)=O)CS[C@H]12)c1csc(N)n1` [Cefotaxime]: the “MIC, cephalosporin alone” value in test [1] is more than 128 µg/mL; in test [2], 8 µg/mL; in test [3], 256 µg/mL; in test [4] it was 64 µg/mL; in test [5], 128 µg/mL; in test [6] it was more than 128 µg/mL. Further, in test [7], the survival came out at 15%.
